Blank lines part the entries; values can stand above or below the molecule they belong to.
Columns and labels:
[1] = molecular target: T1, Organic anion transporter 3 (OAT3) (Rattus norvegicus, UniProt Q9R1U7); experiment: TP_TRANSPORTER: inhibition of Indoxyl sulfate uptake (indoxyl sulfate: 2 uM, 2-Hydroxycinnamic acid: 1000 uM) in Xenopus laevis oocytes; assay type: functional, cell-based, Oocyte; set-up: scale not given: the % may be the effect or the level left; details: probe indoxyl sulfate (2 uM), read-out: Activity
T1 sequence (Q9R1U7 whole entry): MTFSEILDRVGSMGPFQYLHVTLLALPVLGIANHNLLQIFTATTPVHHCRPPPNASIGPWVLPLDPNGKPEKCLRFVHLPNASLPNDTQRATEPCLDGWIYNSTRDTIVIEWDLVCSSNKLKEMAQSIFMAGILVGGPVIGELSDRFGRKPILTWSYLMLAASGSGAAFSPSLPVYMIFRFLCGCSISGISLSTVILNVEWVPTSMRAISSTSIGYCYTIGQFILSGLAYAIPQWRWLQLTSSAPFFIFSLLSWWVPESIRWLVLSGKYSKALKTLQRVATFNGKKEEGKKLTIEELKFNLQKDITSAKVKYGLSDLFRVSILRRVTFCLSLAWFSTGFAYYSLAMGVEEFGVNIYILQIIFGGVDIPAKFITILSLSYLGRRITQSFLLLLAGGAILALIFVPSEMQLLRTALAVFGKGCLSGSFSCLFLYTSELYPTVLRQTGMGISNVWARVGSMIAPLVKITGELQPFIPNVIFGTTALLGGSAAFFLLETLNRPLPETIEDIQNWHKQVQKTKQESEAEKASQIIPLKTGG

[2] = molecular target: T1, Organic anion transporter 3 (OAT3); experiment: TP_TRANSPORTER: inhibition of Indoxyl sulfate uptake (indoxyl sulfate: 2 uM, CMPF: 1000 uM) in Xenopus laevis oocytes; assay type: functional, cell-based, Oocyte; set-up: scale not given: the % may be the effect or the level left; details: probe indoxyl sulfate (2 uM), read-out: Activity
[3] = molecular target: T1, Organic anion transporter 3 (OAT3); experiment: TP_TRANSPORTER: inhibition of Indoxyl sulfate uptake (indoxyl sulfate: 2 uM, Indoleacetic acid: 1000 uM) in Xenopus laevis oocytes; assay type: functional, cell-based, Oocyte; set-up: scale not given: the % may be the effect or the level left; details: probe indoxyl sulfate (2 uM), read-out: Activity
[4] = molecular target: T1, Organic anion transporter 3 (OAT3); experiment: TP_TRANSPORTER: inhibition of Indoxyl sulfate uptake (indoxyl sulfate: 2 uM, 4-Hydroxyphenylacetic acid: 1000 uM) in Xenopus laevis oocytes; assay type: functional, cell-based, Oocyte; set-up: scale not given: the % may be the effect or the level left; details: probe indoxyl sulfate (2 uM), read-out: Activity
[5] = molecular target: T1, Organic anion transporter 3 (OAT3); experiment: TP_TRANSPORTER: inhibition of Indoxyl sulfate uptake (indoxyl sulfate: 2 uM, 4-Hydroxybenzoic acid: 1000 uM) in Xenopus laevis oocytes; assay type: functional, cell-based, Oocyte; set-up: scale not given: the % may be the effect or the level left; details: probe indoxyl sulfate (2 uM), read-out: Activity
[6] = molecular target: T2, Organic anion transporter 3 (Rattus norvegicus, UniProt Q9R1U7); experiment: TP_TRANSPORTER: inhibition of Indoxyl sulfate uptake (indoxyl sulfate: 2 uM, Hippurate: 1000 uM) in Xenopus laevis oocytes; assay type: functional, cell-based; set-up: scale not given: the % may be the effect or the level left; details: oocyte
T2 sequence (Q9R1U7 whole entry): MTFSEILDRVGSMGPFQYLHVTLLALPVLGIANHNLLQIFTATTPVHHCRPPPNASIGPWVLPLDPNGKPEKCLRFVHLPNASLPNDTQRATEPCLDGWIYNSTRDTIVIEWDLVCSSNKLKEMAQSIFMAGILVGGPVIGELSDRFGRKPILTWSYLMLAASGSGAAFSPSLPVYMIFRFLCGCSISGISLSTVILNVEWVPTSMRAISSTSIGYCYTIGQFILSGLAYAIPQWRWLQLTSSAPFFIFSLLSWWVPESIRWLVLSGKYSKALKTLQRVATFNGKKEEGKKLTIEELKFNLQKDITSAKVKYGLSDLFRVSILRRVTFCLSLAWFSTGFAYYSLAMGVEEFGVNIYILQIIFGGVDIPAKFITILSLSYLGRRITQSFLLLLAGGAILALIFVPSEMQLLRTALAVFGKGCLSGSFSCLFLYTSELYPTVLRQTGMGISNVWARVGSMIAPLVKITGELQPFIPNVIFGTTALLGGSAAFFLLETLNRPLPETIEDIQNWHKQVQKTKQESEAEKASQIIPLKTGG

[7] = substrate: O=S(=O)(O)Oc1c[nH]c2ccccc12; experiment: TP_TRANSPORTER: uptake in Xenopus laevis oocytes; assay type: functional, cell-based, Oocyte

activity at 1000 µM [1]: 39.5%
Molecule: O=C(O)/C=C/c1ccccc1O [O-COUMARIC ACID]

activity at 1000 µM [3]: 51.2%
Molecule: CC(=O)Oc1c[nH]c2ccccc12 [INDOLE ACETATE]

activity at 1000 µM [4]: 29.7%
Molecule: O=C(O)Cc1ccc(O)cc1

Further lines, the molecule ahead of its results:

Molecule: CCCc1oc(CCC(=O)O)c(C(=O)O)c1C
activity at 1000 µM [2]: 8.38%

Molecule: O=C(O)c1ccc(O)cc1 [PARABEN]
activity at 1000 µM [5]: 22.1%

Molecule: O=C(O)CNC(=O)c1ccccc1 [HIPPURIC ACID]
Activity [6]: 24.6%

B1: Organic anion transporter 3 (Rattus norvegicus) (protein)
chain: MTFSEILDRVGSMGPFQYLHVTLLALPVLGIANHNLLQIFTATTPVHHCRPPPNASIGPWVLPLDPNGKPEKCLRFVHLPNASLPNDTQRATEPCLDGWIYNSTRDTIVIEWDLVCSSNKLKEMAQSIFMAGILVGGPVIGELSDRFGRKPILTWSYLMLAASGSGAAFSPSLPVYMIFRFLCGCSISGISLSTVILNVEWVPTSMRAISSTSIGYCYTIGQFILSGLAYAIPQWRWLQLTSSAPFFIFSLLSWWVPESIRWLVLSGKYSKALKTLQRVATFNGKKEEGKKLTIEELKFNLQKDITSAKVKYGLSDLFRVSILRRVTFCLSLAWFSTGFAYYSLAMGVEEFGVNIYILQIIFGGVDIPAKFITILSLSYLGRRITQSFLLLLAGGAILALIFVPSEMQLLRTALAVFGKGCLSGSFSCLFLYTSELYPTVLRQTGMGISNVWARVGSMIAPLVKITGELQPFIPNVIFGTTALLGGSAAFFLLETLNRPLPETIEDIQNWHKQVQKTKQESEAEKASQIIPLKTGG
Km [7]: 158 µM

Source: ChEMBL document CHEMBL2073897, “Major role of organic anion transporter 3 in the transport of indoxyl sulfate in the kidney” (Kidney Int, 2002)
